According to ChEMBL document CHEMBL1201862, “PubChem BioAssay data set” (2004):
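Test compounds were applied to cells in 96-well plates for 48 hours at 5 doses. At the GI50, growth is halved.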 Activity calls are given as the source filed them. Cut-off read from the data, not from the text of the source: active = GI50 up to about 1.1 µM and inactive = higher.

How the values were obtained:
Assay in all cases: NCI anticancer screen, dose series, 48 h
CCRF-CEM = test system: CCRF-CEM
HT-29 = test system: HT-29
K562 = test system: K562
MOLT-4 = test system: MOLT-4
MDA-MB-231 = test system: MDA-MB-231
COLO 205 = test system: COLO 205
HOP-92 = test system: HOP-92
NCI-H226 = test system: NCI-H226
BT-549 = test system: BT-549
OVCAR-4 = test system: OVCAR-4
HCT-116 = test system: HCT-116
NCI/ADR-RES = test system: NCI/ADR-RES
SNB-75 = test system: SNB-75
SR = test system: SR
UO-31 = test system: UO-31
RPMI-8226 = test system: RPMI-8226
OVCAR-3 = test system: OVCAR-3
SK-MEL-2 = test system: SK-MEL-2
SNB-19 = test system: SNB-19
HCT-15 = test system: HCT-15
PC-3 = test system: PC-3
CAKI-1 = test system: CAKI-1
NCI-H522 = test system: NCI-H522
SF-268 = test system: SF-268
SF-295 = test system: SF-295
MCF7 = test system: MCF7
DU-145 = test system: DU-145
OVCAR-8 = test system: OVCAR-8
HCC 2998 = test system: HCC 2998
NCI-H460 = test system: NCI-H460
LOX IMVI = test system: LOX IMVI
786-0 = test system: 786-0
SF-539 = test system: SF-539
KM12 = test system: KM12
T47D = test system: T47D
NCI-H23 = test system: NCI-H23
HOP-62 = test system: HOP-62
SK-OV-3 = test system: SK-OV-3
IGROV-1 = test system: IGROV-1
Hs-578T = test system: Hs-578T
SK-MEL-28 = test system: SK-MEL-28
UACC-257 = test system: UACC-257
EKVX = test system: EKVX
ACHN = test system: ACHN
MDA-N = test system: MDA-N
A498 = test system: A498
SN12C = test system: SN12C
RXF 393 = test system: RXF 393
MDA-MB-435 = test system: MDA-MB-435
Malme-3M = test system: Malme-3M
SK-MEL-5 = test system: SK-MEL-5
M14 = test system: M14
UACC-62 = test system: UACC-62
TK-10 = test system: TK-10
A549 = test system: A549
U-251 = test system: U-251
SW-620 = test system: SW-620
OVCAR-5 = test system: OVCAR-5
HL-60 = test system: HL-60

COC(=O)Cc1c(-c2[nH]c3ccccc3c2CC(=O)OC)[nH]c2ccccc12
GI50 (CCRF-CEM): > 25.2 µM (inactive) | GI50 (HT-29): > 59.3 µM (inactive) | GI50 (K562): 27.7 µM (inactive) | GI50 (MOLT-4): > 47.4 µM (inactive) | GI50 (MDA-MB-231): 38.7 µM (inactive) | GI50 (COLO 205): > 53 µM (inactive) | GI50 (HOP-92): > 50.9 µM (inactive) | GI50 (NCI-H226): > 54.7 µM (inactive) | GI50 (BT-549): > 57.1 µM (inactive) | GI50 (OVCAR-4): > 49.9 µM (inactive) | GI50 (HCT-116): > 54.2 µM (inactive) | GI50 (NCI/ADR-RES): > 57.3 µM (inactive) | GI50 (SNB-75): > 57.4 µM (inactive) | GI50 (SR): > 55 µM (inactive) | GI50 (UO-31): > 55.3 µM (inactive) | GI50 (RPMI-8226): > 37.7 µM (inactive) | GI50 (OVCAR-3): 1.41 µM (inactive) | GI50 (SK-MEL-2): > 57.7 µM (inactive) | GI50 (SNB-19): 53.5 µM (inactive) | GI50 (HCT-15): > 50.7 µM | GI50 (PC-3): > 49 µM (inactive) | GI50 (CAKI-1): > 37.2 µM (inactive) | GI50 (NCI-H522): > 28.6 µM (inactive) | GI50 (SF-268): 20.4 µM (inactive) | GI50 (SF-295): > 57.9 µM (inactive) | GI50 (MCF7): > 41.1 µM (inactive) | GI50 (DU-145): > 53 µM (inactive) | GI50 (OVCAR-8): 32.2 µM (inactive) | GI50 (HCC 2998): > 57 µM (inactive) | GI50 (NCI-H460): > 63 µM (inactive) | GI50 (LOX IMVI): > 58.6 µM (inactive) | GI50 (786-0): 33.7 µM (inactive) | GI50 (SF-539): 67.5 µM (inactive) | GI50 (KM12): 26.3 µM (inactive) | GI50 (T47D): 2.13 µM (inactive) | GI50 (NCI-H23): > 55.5 µM (inactive) | GI50 (HOP-62): 23.2 µM (inactive) | GI50 (SK-OV-3): > 58.1 µM (inactive) | GI50 (IGROV-1): 45.9 µM (inactive) | GI50 (Hs-578T): > 68.4 µM (inactive) | GI50 (SK-MEL-28): > 55 µM (inactive) | GI50 (UACC-257): > 56.1 µM (inactive) | GI50 (EKVX): 39.4 µM (inactive) | GI50 (ACHN): > 58.9 µM (inactive) | GI50 (MDA-N): > 53.8 µM (inactive) | GI50 (A498): 38.3 µM (inactive) | GI50 (SN12C): > 59.4 µM (inactive) | GI50 (RXF 393): 30.3 µM (inactive) | GI50 (MDA-MB-435): > 54 µM (inactive) | GI50 (Malme-3M): > 55.6 µM (inactive) | GI50 (SK-MEL-5): > 52.7 µM (inactive) | GI50 (M14): > 52.4 µM (inactive) | GI50 (UACC-62): > 49 µM (inactive) | GI50 (TK-10): > 53.2 µM (inactive) | GI50 (A549): > 52.6 µM (inactive) | GI50 (U-251): 51.1 µM (inactive) | GI50 (SW-620): > 53.5 µM (inactive) | GI50 (OVCAR-5): > 54.8 µM (inactive)

Nc1ncc2c(n1)-c1ccccc1OC2N1CCCCC1 (configuration not stated)
GI50 (CCRF-CEM): > 100 µM (inactive) | GI50 (HT-29): > 100 µM (inactive) | GI50 (MOLT-4): > 100 µM (inactive) | GI50 (MDA-MB-231): > 100 µM (inactive) | GI50 (COLO 205): > 100 µM (inactive) | GI50 (HOP-92): > 100 µM (inactive) | GI50 (NCI-H226): > 100 µM (inactive) | GI50 (BT-549): > 100 µM (inactive) | GI50 (OVCAR-4): > 100 µM (inactive) | GI50 (HCT-116): > 100 µM (inactive) | GI50 (NCI/ADR-RES): > 100 µM (inactive) | GI50 (SNB-75): > 100 µM (inactive) | GI50 (SR): > 100 µM (inactive) | GI50 (UO-31): > 100 µM (inactive) | GI50 (RPMI-8226): > 100 µM (inactive) | GI50 (OVCAR-3): > 100 µM (inactive) | GI50 (SK-MEL-2): > 100 µM (inactive) | GI50 (SNB-19): > 100 µM (inactive) | GI50 (HCT-15): > 100 µM | GI50 (PC-3): > 100 µM (inactive) | GI50 (CAKI-1): > 100 µM (inactive) | GI50 (NCI-H522): > 100 µM (inactive) | GI50 (SF-268): > 100 µM (inactive) | GI50 (SF-295): > 100 µM (inactive) | GI50 (MCF7): > 100 µM (inactive) | GI50 (DU-145): > 100 µM (inactive) | GI50 (OVCAR-8): > 100 µM (inactive) | GI50 (HL-60): > 100 µM (inactive) | GI50 (NCI-H460): > 100 µM (inactive) | GI50 (LOX IMVI): > 100 µM (inactive) | GI50 (786-0): > 100 µM (inactive) | GI50 (SF-539): > 100 µM (inactive) | GI50 (KM12): > 100 µM (inactive) | GI50 (T47D): > 100 µM (inactive) | GI50 (NCI-H23): > 100 µM (inactive) | GI50 (SK-OV-3): > 100 µM (inactive) | GI50 (IGROV-1): > 100 µM (inactive) | GI50 (Hs-578T): > 100 µM (inactive) | GI50 (UACC-257): > 100 µM (inactive) | GI50 (EKVX): 95.1 µM (inactive) | GI50 (ACHN): > 100 µM (inactive) | GI50 (MDA-N): > 100 µM (inactive) | GI50 (A498): > 100 µM (inactive) | GI50 (SN12C): > 100 µM (inactive) | GI50 (RXF 393): > 100 µM (inactive) | GI50 (MDA-MB-435): > 100 µM (inactive) | GI50 (SK-MEL-5): > 100 µM (inactive) | GI50 (M14): > 100 µM (inactive) | GI50 (UACC-62): > 100 µM (inactive) | GI50 (TK-10): > 100 µM (inactive) | GI50 (A549): > 100 µM (inactive) | GI50 (U-251): > 100 µM (inactive) | GI50 (SW-620): > 100 µM (inactive) | GI50 (OVCAR-5): > 100 µM (inactive)

COc1ccc(-n2c3c(c4cc(O)ccc42)C(=O)c2ccccc2C3=O)cc1
GI50 (HT-29): 3.94 µM (inactive) | GI50 (K562): 30.7 µM (inactive) | GI50 (MOLT-4): 7.66 µM (inactive) | GI50 (MDA-MB-231): 2 µM (inactive) | GI50 (COLO 205): 80.5 µM (inactive) | GI50 (HOP-92): 16.9 µM (inactive) | GI50 (BT-549): 11.2 µM (inactive) | GI50 (OVCAR-4): 17.4 µM (inactive) | GI50 (HCT-116): 0.305 µM (active) | GI50 (NCI/ADR-RES): 4.61 µM (inactive) | GI50 (SR): 10.4 µM (inactive) | GI50 (UO-31): 14.7 µM (inactive) | GI50 (RPMI-8226): 13.8 µM (inactive) | GI50 (OVCAR-3): 8.38 µM (inactive) | GI50 (SK-MEL-2): 5.75 µM (inactive) | GI50 (SNB-19): 6.65 µM (inactive) | GI50 (HCT-15): > 100 µM | GI50 (PC-3): 5.32 µM (inactive) | GI50 (CAKI-1): 95.7 µM (inactive) | GI50 (NCI-H522): 16.6 µM (inactive) | GI50 (SF-268): 2.14 µM (inactive) | GI50 (SF-295): 2.86 µM (inactive) | GI50 (MCF7): 10.7 µM (inactive) | GI50 (DU-145): 19.1 µM (inactive) | GI50 (OVCAR-8): 2.52 µM (inactive) | GI50 (HL-60): 15 µM (inactive) | GI50 (NCI-H460): 3.97 µM (inactive) | GI50 (LOX IMVI): 4.71 µM (inactive) | GI50 (786-0): 1.72 µM (inactive) | GI50 (SF-539): 1.05 µM (active) | GI50 (KM12): 2.13 µM (inactive) | GI50 (T47D): 8.24 µM (inactive) | GI50 (NCI-H23): 8.97 µM (inactive) | GI50 (HOP-62): 2.26 µM (inactive) | GI50 (SK-OV-3): 0.404 µM (active) | GI50 (IGROV-1): 3.79 µM (inactive) | GI50 (Hs-578T): 7.24 µM (inactive) | GI50 (SK-MEL-28): 3.08 µM (inactive) | GI50 (UACC-257): > 100 µM (inactive) | GI50 (EKVX): 4.74 µM (inactive) | GI50 (ACHN): 0.682 µM (active) | GI50 (MDA-N): > 100 µM (inactive) | GI50 (A498): 3.93 µM (inactive) | GI50 (SN12C): 2.3 µM (inactive) | GI50 (RXF 393): 2.84 µM (inactive) | GI50 (MDA-MB-435): 13.8 µM (inactive) | GI50 (Malme-3M): 36.2 µM (inactive) | GI50 (SK-MEL-5): 2.73 µM (inactive) | GI50 (M14): > 100 µM (inactive) | GI50 (UACC-62): 3.5 µM (inactive) | GI50 (TK-10): 8.55 µM (inactive) | GI50 (A549): 11.7 µM (inactive) | GI50 (U-251): 0.931 µM (active) | GI50 (SW-620): > 100 µM (inactive) | GI50 (OVCAR-5): 6.04 µM (inactive)
